Patent US20080219936A1, “Skin depigmenting compositions comprising adapalene, at least one depigmenting agent and at least one anti-inflammatory agent” (GALDERMA RESEARCH AND DEVELOPMENT, priority 2005, published 2008)

How the values were obtained:
[1] = test system: natural pigmentation of the tail of an SKH:HR2 mouse; experiment: Depigmenting activity on natural pigmentation, tail of non-irradiated SKH:HR2 mouse, 8 weeks; assay type: in vivo; conditions: topical in acetone 5 days a week for 8 weeks, 3% hydroquinone, 0.1% adapalene, alone or in combination
Procedure: The evaluation of the depigmenting and/or anti-pigmenting activity of 3% hydroquinone and of 0.1% adapalene, alone or in combination for 8 weeks, is carried out on the tail of an SKH:HR2 mouse irradiated with ultraviolet B radiation, or not irradiated.
The treatment is carried out 5 days a week for 8 weeks. 20 μl of test product diluted in acetone are applied to the tail with a gap from applications: the hydroquinone is applied in the morning and the adapalene 4 h later.
−1: slight depigmentation
−2: moderate depigmentation
−3: marked depigmentation
−4: complete depigmentation

[2] = test system: UV-induced pigmentation of the tail of an SKH:HR2 mouse; conditions: UV-B 90 mJ/cm^2 3 times a week; topical in acetone 5 days a week for 8 weeks; 3% hydroquinone, 0.1% adapalene
Procedure: The tail of the SKH:HR2 mouse is naturally pigmented and this pigmentation increases under the effect of repeated UV-B irradiation. The depigmenting activity is measured on the natural pigmentation after application of the test product to the tail of non-irradiated animals. The anti-pigmenting activity is measured by the inhibition of the induction of the UV-induced pigmentation: the test product is applied to the tail of UV-B-irradiated animals.
The treatment is carried out 5 days a week for 8 weeks. […] On the days of irradiation, the treatment is applied after irradiation.
The animals are irradiated 3 times a week for 8 weeks (Monday, Wednesday, Friday) at the dose of 90 mJ/cm^2 of UV-B.
The pigmentation is evaluated once a week before irradiation, by means of a score on a scale of 0 to 4. The scores are divided as follows: Depigmentation scale: scores −1 to −4.
Pigmentation scale: scores 1 to 4

tail of a mouse = experiment: Inhibition of the induction of pigmentation by UV-B radiation in irradiated and treated mice; assay type: in vivo; conditions: lower dose (0.01%)
Description: Retinoic acid (tretinoin) is known to itself have a skin depigmenting activity (Guevara I. A. and Pandya A. G., Int. J. Dermatol., 40, 210-215 (2001)). […] Tretinoin is therefore a depigmenting agent in and of itself.

Compound	depigmenting activity (natural pigmentation score) [1]	depigmenting activity (natural pigmentation score) ([1]; listed as Adapalene)	anti-pigmenting activity (inhibition of pigmentation induced by UV-B irradiation) [2]	inhibition of the induction of pigmentation by UV-B radiation (tail of a mouse)
COc1ccc(-c2ccc3cc(C(=O)O)ccc3c2)cc1C12CC3CC(CC(C3)C1)C2 [adapalene, 6-[3-(1-adamantyl)-4-methoxyphenyl]-2-naphthanoic acid]	no depigmenting activity	does not modify the natural pigmentation	–	–
Oc1ccc(O)cc1 [hydroquinone]	induces a depigmentation	–	shows an anti-pigmenting effect at the 6th and at the 7th week (D50), which becomes less marked at the end of the study	–
CC1=C(/C=C/C(C)=C/C=C/C(C)=C/C(=O)O)C(C)(C)CCC1 [tretinoin, Retinoic acid]	–	–	–	no effect
